Blank lines part the entries; values can stand above or below the compound they belong to. The source made the active and inactive calls. The rule behind the calls is not given here.
How the values were obtained:
[1] = tested on: RAW264.7; test: Cytotoxicity against LPS-induced mouse RAW264.7 cells assessed as reduction in cell viability at 30 uM pretreated for 1 hr followed by LPS addition and measured after 24 hrs by MTT assay; format: toxicity, cell-based; conditions: raw264.7, 25 h
[2] = tested on: RAW264.7; test: Antiinflammatory activity in LPS-induced mouse RAW264.7 cells assessed as inhibition of NO production pretreated for 1 hr followed by LPS stimulation and measured after 24 hrs by griess reagent based assay; format: functional, cell-based
[3] = tested on: Rattus norvegicus; test: Antiarthritic activity in Freund's complete adjuvant induced Lewis rat model of arthritis assessed as reduction in PGE2 level in serum at 20 mg/kg, po administered every 24 hrs for 28 days post immunization starting from day 8 post immunization by ELISA; format: functional, organism-based; conditions: time 21.0 day
[4] = tested on: Rattus norvegicus; test: Antiarthritic activity in Freund's complete adjuvant induced Lewis rat model of arthritis assessed as reduction in TNFalpha level in serum at 20 mg/kg, po administered every 24 hrs for 28 days post immunization starting from day 8 post immunization by ELISA; format: functional, organism-based; conditions: time 21.0 day
[5] = tested on: Rattus norvegicus; test: Antiarthritic activity in Freund's complete adjuvant induced Lewis rat model of arthritis assessed as reduction in IL-6 level in serum at 20 mg/kg, po administered every 24 hrs for 28 days post immunization starting from day 8 post immunization by ELISA; format: functional, organism-based; conditions: time 21.0 day
[6] = tested on: Rattus norvegicus; test: (§1) Immunomodulatory activity in Freund's complete adjuvant induced Lewis rat model of arthritis assessed as reduction in IL-17 level in serum at 20 mg/kg, po administered every 24 hrs for 28 days post immunization starting from day 8 post immunization by ELISA; format: functional, organism-based; conditions: time 21.0 day
[7] = tested on: Rattus norvegicus; test: (§2) Immunomodulatory activity in Freund's complete adjuvant induced Lewis rat model of arthritis assessed as increase in IL-10 level in serum at 20 mg/kg, po administered every 24 hrs for 28 days post immunization starting from day 8 post immunization by ELISA; format: functional, organism-based; conditions: time 21.0 day
[8] = tested on: Rattus norvegicus; test: as §2, with “anti-IL-10 antibody expression” for “IL-10 level”, “knee joint slices” for “serum”, “immunohistochemistry analysis” for “ELISA”; format: functional, organism-based; conditions: time 21.0 day
[9] = tested on: Rattus norvegicus; test: as §1, with “decrease” for “reduction”, “anti-IL-17 antibody expression” for “IL-17 level”, “knee joint slices” for “serum”, “immunohistochemistry analysis” for “ELISA”; format: functional, organism-based; conditions: time 21.0 day
[10] = Toxicity in male Wistar rat assessed as gastrointestinal damage by measuring number of ulcers at 50 mg/kg administered by gavage and measured after 6 hrs (reference value: 0); format: organism-based; conditions: in vivo, po
[11] = Toxicity in male Wistar rat assessed as gastrointestinal damage by measuring level-1 ulcers with <1 mm area at 50 mg/kg administered by gavage and measured after 6 hrs; format: organism-based; conditions: in vivo, po
[12] = Toxicity in male Wistar rat assessed as gastrointestinal damage by measuring level-2 ulcers with 1 to 3 mm area at 50 mg/kg administered by gavage and measured after 6 hrs; format: organism-based; conditions: in vivo, po
[13] = Toxicity in male Wistar rat assessed as gastrointestinal damage by measuring level-3 ulcers with >3 mm area at 50 mg/kg administered by gavage and measured after 6 hrs; format: organism-based; conditions: in vivo, po
[14] = Toxicity in male Wistar rat assessed as gastrointestinal damage by measuring ulcer index at 50 mg/kg administered by gavage and measured after 6 hrs; format: organism-based; conditions: in vivo, po

Compound: CCCCC/C=C\C/C=C\CCCCCC/C=C(/OC(=O)C(C)c1ccc(C(=O)c2ccccc2)cc1)C(F)(F)F (stereo not drawn)
Activity [1]: Non-Toxic

Compound: CCCCCCCCCCCCC/C=C(/OC(=O)C(C)c1ccc(CC(C)C)cc1)C(F)(F)F (stereo not drawn)
Activity [1]: Non-Toxic

Compound: C=CCCCCCCC/C=C(/OC(=O)[C@@H](C)c1ccc2cc(OC)ccc2c1)C(F)(F)F
Activity [1]: Non-Toxic

Compound: CCCCCCCCCCCCCCCCCC/C=C(/OC(=O)[C@@H](C)c1ccc2cc(OC)ccc2c1)C(F)(F)F
Activity [1]: Non-Toxic

Compound: CCCCC/C=C\C/C=C\CCCCCC/C=C(/OC(=O)c1ccccc1OC(C)=O)C(F)(F)F
Activity [1]: Non-Toxic

Compound: CCCCCCCCCCCCCCCCCC/C=C(/OC(=O)C(C)c1ccc(C(=O)c2ccccc2)cc1)C(F)(F)F (stereo not drawn)
Activity [1]: Non-Toxic

Compound: CCCCCCCCCC/C=C(/OC(=O)C(C)c1ccc(C(=O)c2ccccc2)cc1)C(F)(F)F (stereo not drawn)
Activity [1]: Non-Toxic

Compound: CCCCCCCCCCCCCC/C=C(/OC(=O)C(C)c1ccc(CC(C)C)cc1)C(F)(F)F (stereo not drawn)
Activity [1]: Non-Toxic

Compound: CCCCCCCCCC/C=C(/OC(=O)c1ccccc1OC(C)=O)C(F)(F)F
Activity [1]: Non-Toxic

Compound: CCCCCCCC/C=C\CCCCCC/C=C(/OC(=O)[C@@H](C)c1ccc2cc(OC)ccc2c1)C(F)(F)F
Activity [1]: Non-Toxic

Compound: CCCCCCCCCCCCCCCCCCCC/C=C(/OC(=O)c1ccccc1OC(C)=O)C(F)(F)F
Activity [1]: Non-Toxic

Compound: CCCCCCCC/C=C\CCCCCCCCCC/C=C(/OC(=O)C(C)c1ccc(CC(C)C)cc1)C(F)(F)F (stereo not drawn)
Activity [1]: Non-Toxic

Compound: CCCCCCCCCC/C=C(/OC(=O)C(C)c1ccc(-c2ccccc2)c(F)c1)C(F)(F)F (stereo not drawn)
Activity [1]: Non-Toxic

Compound: CCCCC/C=C\C/C=C\C/C=C\C/C=C\CC/C=C(/OC(=O)c1ccccc1OC(C)=O)C(F)(F)F
Activity [1]: Non-Toxic

Compound: CCCCCCCCCCCCCC/C=C(/OC(=O)[C@@H](C)c1ccc2cc(OC)ccc2c1)C(F)(F)F
Activity [1]: Non-Toxic

Compound: CCCC/C=C(/OC(=O)C(C)c1ccc(CC(C)C)cc1)C(F)(F)F (stereo not drawn)
Activity [1]: Non-Toxic

Compound: CCCCCCCC/C=C(/OC(=O)C(C)c1ccc(CC(C)C)cc1)C(F)(F)F (stereo not drawn)
Activity [1]: Non-Toxic

Compound: CCCCCCCCCCCC/C=C(/OC(=O)C(C)c1ccc(CC(C)C)cc1)C(F)(F)F (stereo not drawn)
Activity [1]: Non-Toxic

Compound: CCC/C=C(/OC(=O)C(C)c1ccc(CC(C)C)cc1)C(F)(F)F (stereo not drawn)
Activity [1]: Non-Toxic

Compound: CCCCCCCCCCCCCCCC/C=C(/OC(=O)C(C)c1ccc(-c2ccccc2)c(F)c1)C(F)(F)F (stereo not drawn)
Activity [1]: Non-Toxic

Compound: CCCCC/C=C\C/C=C\C/C=C\C/C=C\CCCC(=O)C(F)(F)F [ARACHIDONYL TRIFLUOROMETHYLKETONE]
Activity [1]: Non-Toxic

Compound: CCCCCCC/C=C(/OC(=O)C(C)c1ccc(CC(C)C)cc1)C(F)(F)F (stereo not drawn)
Activity [1]: Non-Toxic

IC50 [2]: 6.67 µM
Compound: CCCCC/C=C\C/C=C\C/C=C\C/C=C\CC/C=C(/OC(=O)[C@@H](C)c1ccc2cc(OC)ccc2c1)C(F)(F)F
Activity [1]: Non-Toxic

Compound: CCCCCC/C=C(/OC(=O)c1ccccc1OC(C)=O)C(F)(F)F
Activity [1]: Non-Toxic

Compound: CCCCCCCCCCCCCC/C=C(/OC(=O)C(C)c1ccc(-c2ccccc2)c(F)c1)C(F)(F)F (stereo not drawn)
Activity [1]: Non-Toxic

Compound: CCCCCCCCCCCCCCCCCCCC/C=C(/OC(=O)C(C)c1ccc(-c2ccccc2)c(F)c1)C(F)(F)F (stereo not drawn)
Activity [1]: Non-Toxic

Compound: CCCCCCCCCCCCCCCC/C=C(/OC(=O)c1ccccc1OC(C)=O)C(F)(F)F
Activity [1]: Non-Toxic

Compound: CCCCCCCC/C=C\CCCCCCCCCC/C=C(/OC(=O)c1ccccc1OC(C)=O)C(F)(F)F
Activity [1]: Non-Toxic

Compound: CCCCCCCCCCCCCCCC/C=C(/OC(=O)C(C)c1ccc(CC(C)C)cc1)C(F)(F)F (stereo not drawn)
Activity [1]: Non-Toxic

Compound: CCCCCCC/C=C(/OC(=O)[C@@H](C)c1ccc2cc(OC)ccc2c1)C(F)(F)F
Activity [1]: Non-Toxic

Compound: CCCCCCCCCCCCCC/C=C(/OC(=O)c1ccccc1OC(C)=O)C(F)(F)F
Activity [1]: Non-Toxic

Compound: CCCCCCC/C=C(/OC(=O)C(C)c1ccc(-c2ccccc2)c(F)c1)C(F)(F)F (stereo not drawn)
Activity [1]: Non-Toxic

IC50 [2]: 7.07 µM
Compound: CC(C(=O)O)c1cccc(C(=O)c2ccccc2)c1 (stereo not drawn) [KETOPROFEN]
Activity [1]: Non-Toxic
Activity [3]: Active
Activity [4]: Active
Activity [5]: Active
Activity [6]: Active
Activity [7]: Active
Activity [8]: Active
Activity [9]: Active
Activity [10]: 23
Activity [11]: 65%
Activity [12]: 30%
Activity [13]: 4%
UI [14]: 40

Compound: CCCCCCCCCCCCCCCCC/C=C(/OC(=O)C(C)c1ccc(CC(C)C)cc1)C(F)(F)F (stereo not drawn)
Activity [1]: Non-Toxic

Compound: CCCCCCCC/C=C(/OC(=O)[C@@H](C)c1ccc2cc(OC)ccc2c1)C(F)(F)F
Activity [1]: Non-Toxic

Compound: CCCCCCCC/C=C(/OC(=O)C(C)c1ccc(-c2ccccc2)c(F)c1)C(F)(F)F (stereo not drawn)
Activity [1]: Non-Toxic

Compound: CCCCCCCCCCCCCCCCCCCC/C=C(/OC(=O)C(C)c1ccc(CC(C)C)cc1)C(F)(F)F (stereo not drawn)
Activity [1]: Non-Toxic

Compound: CCCCCCCC/C=C(/OC(=O)c1ccccc1OC(C)=O)C(F)(F)F
Activity [1]: Non-Toxic

Compound: CCCCCCCCCCCC/C=C(/OC(=O)c1ccccc1OC(C)=O)C(F)(F)F
Activity [1]: Non-Toxic

Compound: CCCCCCCCCCCCCCCC/C=C(/OC(=O)[C@@H](C)c1ccc2cc(OC)ccc2c1)C(F)(F)F
Activity [1]: Non-Toxic

Compound: CCCCCCCCCC/C=C(/OC(=O)C(C)c1ccc(CC(C)C)cc1)C(F)(F)F (stereo not drawn)
Activity [1]: Non-Toxic

Compound: CCCCCCCCCCCCCCCCCC/C=C(/OC(=O)C(C)c1ccc(-c2ccccc2)c(C)c1)C(F)(F)F (stereo not drawn)
Activity [1]: Non-Toxic

Compound: CCCCCCCCCCCCCCC/C=C(/OC(=O)C(C)c1ccc(CC(C)C)cc1)C(F)(F)F (stereo not drawn)
Activity [1]: Non-Toxic

Compound: CCCCCCCCCCCCCCCCCC/C=C(/OC(=O)C(C)c1ccc(CC(C)C)cc1)C(F)(F)F (stereo not drawn)
Activity [1]: Non-Toxic

Compound: CCCCC/C=C\C/C=C\CCCCCC/C=C(/OC(=O)[C@@H](C)c1ccc2cc(OC)ccc2c1)C(F)(F)F
Activity [1]: Non-Toxic

Compound: CCCCCCC/C=C(/OC(=O)c1ccccc1OC(C)=O)C(F)(F)F
Activity [1]: Non-Toxic

Compound: CCCCCCCC/C=C\CCCCCC/C=C(/OC(=O)C(C)c1ccc(CC(C)C)cc1)C(F)(F)F (stereo not drawn)
Activity [1]: Non-Toxic

Compound: CCCCCCCCCC/C=C(/OC(=O)[C@@H](C)c1ccc2cc(OC)ccc2c1)C(F)(F)F
Activity [1]: Non-Toxic

IC50 [2]: 4.74 µM
Compound: CCCCC/C=C\C/C=C\C/C=C\C/C=C\CC/C=C(/OC(=O)C(C)c1ccc(CC(C)C)cc1)C(F)(F)F (stereo not drawn)
Activity [1]: Non-Toxic

Compound: CCCCCCCC/C=C\CCCCCC/C=C(/OC(=O)C(C)c1ccc(-c2ccccc2)c(F)c1)C(F)(F)F (stereo not drawn)
Activity [1]: Non-Toxic

Compound: CCCCCCCC/C=C\CCCCCCCCCC/C=C(/OC(=O)[C@@H](C)c1ccc2cc(OC)ccc2c1)C(F)(F)F
Activity [1]: Non-Toxic

Compound: CCCCCCCC/C=C\CCCCCC/C=C(/OC(=O)c1ccccc1OC(C)=O)C(F)(F)F
Activity [1]: Non-Toxic

Compound: CCCCCC/C=C(/OC(=O)C(C)c1ccc(CC(C)C)cc1)C(F)(F)F (stereo not drawn)
Activity [1]: Non-Toxic

Compound: CCCCCCCCCCCCCCCCCCCC/C=C(/OC(=O)[C@@H](C)c1ccc2cc(OC)ccc2c1)C(F)(F)F
Activity [1]: Non-Toxic

IC50 [2]: 7.08 µM
Compound: CCCCC/C=C\C/C=C\C/C=C\C/C=C\CC/C=C(/OC(=O)C(C)c1ccc(-c2ccccc2)c(F)c1)C(F)(F)F (stereo not drawn)
Activity [1]: Non-Toxic

Compound: CCCCC/C=C\C/C=C\C/C=C\C/C=C\CC/C=C(/OC(=O)Cc1c(C)n(C(=O)c2ccc(Cl)cc2)c2ccc(OC)cc12)C(F)(F)F
Activity [1]: Non-Toxic

Compound: CCCCC/C=C\C/C=C\CCCCCC/C=C(/OC(=O)C(C)c1ccc(-c2ccccc2)c(F)c1)C(F)(F)F (stereo not drawn)
Activity [1]: Non-Toxic

Compound: CCCCCCCCCCCCCCCCCC/C=C(/OC(=O)c1ccccc1OC(C)=O)C(F)(F)F
Activity [1]: Non-Toxic

Compound: CCCCC/C=C\C/C=C\CCCCCC/C=C(/OC(=O)C(C)c1ccc(CC(C)C)cc1)C(F)(F)F (stereo not drawn)
Activity [1]: Non-Toxic

Compound: CCCCCCCC/C=C\CCCCCCCCCC/C=C(/OC(=O)C(C)c1ccc(-c2ccccc2)c(F)c1)C(F)(F)F (stereo not drawn)
Activity [1]: Non-Toxic

Compound: C=CCCCCCCC/C=C(/OC(=O)C(C)c1ccc(-c2ccccc2)c(F)c1)C(F)(F)F (stereo not drawn)
Activity [1]: Non-Toxic

Compound: CCCCCCCCCCCC/C=C(/OC(=O)[C@@H](C)c1ccc2cc(OC)ccc2c1)C(F)(F)F
Activity [1]: Non-Toxic

Source: ChEMBL document CHEMBL5543086, “Discovery of novel NSAID hybrids as cPLA2/COX-2 dual inhibitors alleviating rheumatoid arthritis via inhibiting p38 MAPK pathway” (Eur J Med Chem, 2024)
